Source: PubChem BioAssay (NCI)
Several values for one entry are separate records, joined by “and”; a condition that tells them apart may be missing. Equal values may be shown once.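 Method: 48-hour compound exposure of cells in 96-well plates, five concentrations, linear interpolation of endpoints. GI50: concentration for 50% inhibition of growth. The concentration for full growth arrest is given as TGI.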

Experiments:
Assay in all cases: NCI tumour cell line growth inhibition, 48 h
IGROV1 ovarian = system: IGROV1 ovarian
OVCAR-5 ovarian = system: OVCAR-5 ovarian
UO-31 renal = system: UO-31 renal
MDA-MB-435 = system: MDA-MB-435
ACHN renal = system: ACHN renal
OVCAR-3 ovarian = system: OVCAR-3 ovarian
SK-OV-3 ovarian = system: SK-OV-3 ovarian
HCC-2998 colon = system: HCC-2998 colon
HL-60(TB) leukemia = system: HL-60(TB) leukemia
786-0 renal = system: 786-0 renal

Cn1cc(C2=C(c3cn(CCCN=C(N)N)c4ccccc34)C(=O)NC2=O)c2ccccc21
GI50 (IGROV1 ovarian): 14.8 µM
TGI (IGROV1 ovarian): > 25 µM
GI50 (OVCAR-5 ovarian): > 25 µM
TGI (OVCAR-5 ovarian): > 25 µM
GI50 (UO-31 renal): > 25 µM
TGI (UO-31 renal): > 25 µM
GI50 (MDA-MB-435): > 25 µM
TGI (MDA-MB-435): > 25 µM
GI50 (ACHN renal): > 25 µM
TGI (ACHN renal): > 25 µM
GI50 (OVCAR-3 ovarian): > 25 µM
TGI (OVCAR-3 ovarian): > 25 µM
GI50 (SK-OV-3 ovarian): > 25 µM
TGI (SK-OV-3 ovarian): > 25 µM
GI50 (HCC-2998 colon): > 25 µM
TGI (HCC-2998 colon): > 25 µM
GI50 (HL-60(TB) leukemia): > 25 µM
TGI (HL-60(TB) leukemia): > 25 µM
GI50 (786-0 renal): > 25 µM
TGI (786-0 renal): > 25 µM

CCC1(O)C(=O)OCc2c1cc1n(c2=O)Cc2cc3c(N)cccc3nc2-1 (centres undefined)
TGI (IGROV1 ovarian): 6.23 µM
GI50 (OVCAR-5 ovarian): 0.106 µM
TGI (OVCAR-5 ovarian): 2.67 µM
TGI (UO-31 renal): 0.126 µM
TGI (MDA-MB-435): 2.88 µM
TGI (ACHN renal): 0.157 µM
TGI (OVCAR-3 ovarian): 3.02 µM
TGI (SK-OV-3 ovarian): 0.804 µM
TGI (HCC-2998 colon): 2.58 µM
TGI (HL-60(TB) leukemia): 0.111 µM
TGI (786-0 renal): 0.0893 µM

CCCCCCCCCCC(O)C1CCC(C2CCC(C(O)CCCCC(O)CCCCCC(O)CC3=CC(C)OC3=O)O2)O1 (centres undefined)
TGI (OVCAR-5 ovarian): > 25 µM
GI50 (UO-31 renal): 1.74 µM
TGI (UO-31 renal): 9.95 µM and > 25 µM
GI50 (MDA-MB-435): 1.51 µM
TGI (MDA-MB-435): 9.96 µM and > 25 µM
GI50 (ACHN renal): 1.59 µM
TGI (ACHN renal): 7.79 µM and > 25 µM
GI50 (OVCAR-3 ovarian): 2.16 µM
TGI (OVCAR-3 ovarian): 9.65 µM and > 25 µM
TGI (SK-OV-3 ovarian): > 25 µM
TGI (HCC-2998 colon): > 25 µM
GI50 (HL-60(TB) leukemia): > 25 µM
TGI (HL-60(TB) leukemia): 8.62 µM and > 25 µM
GI50 (786-0 renal): 3.53 µM
TGI (786-0 renal): > 25 µM

COc1cccc(N=Cc2c3ccccc3c(=O)n3c2oc2ccccc23)c1
GI50 (IGROV1 ovarian): 5.86 µM
TGI (IGROV1 ovarian): > 100 µM
GI50 (OVCAR-5 ovarian): 27.1 µM
TGI (OVCAR-5 ovarian): 87.4 µM
GI50 (UO-31 renal): 42.7 µM
TGI (UO-31 renal): > 100 µM
GI50 (MDA-MB-435): 7.27 µM
TGI (MDA-MB-435): 46.4 µM
GI50 (ACHN renal): 7.11 µM
TGI (ACHN renal): 30 µM
GI50 (OVCAR-3 ovarian): 4.44 µM
TGI (OVCAR-3 ovarian): 45.3 µM
GI50 (SK-OV-3 ovarian): 73.1 µM
TGI (SK-OV-3 ovarian): > 100 µM
GI50 (HCC-2998 colon): 6.81 µM
TGI (HCC-2998 colon): 44.9 µM
GI50 (786-0 renal): 14 µM
TGI (786-0 renal): > 100 µM

COc1ccc(C(=O)/C=C/c2cccnc2Nc2cc(OC)c(OC)c(OC)c2)cc1
GI50 (IGROV1 ovarian): 3.03 µM
TGI (IGROV1 ovarian): 21.3 µM
GI50 (OVCAR-5 ovarian): 3.36 µM
TGI (OVCAR-5 ovarian): 10 µM
GI50 (UO-31 renal): 1.17 µM
TGI (UO-31 renal): 3.04 µM
GI50 (MDA-MB-435): 0.885 µM
TGI (MDA-MB-435): 12.2 µM
GI50 (ACHN renal): 1.9 µM
TGI (ACHN renal): 4.06 µM
GI50 (OVCAR-3 ovarian): 0.617 µM
TGI (OVCAR-3 ovarian): 4.72 µM
GI50 (SK-OV-3 ovarian): 4.12 µM
TGI (SK-OV-3 ovarian): 16.4 µM
GI50 (HCC-2998 colon): 1.35 µM
TGI (HCC-2998 colon): 2.85 µM
GI50 (HL-60(TB) leukemia): 1.27 µM
TGI (HL-60(TB) leukemia): 4.01 µM
GI50 (786-0 renal): 1.22 µM
TGI (786-0 renal): 2.96 µM

CN(C)C(=S)SN(C)C(=O)Nc1ccccc1
TGI (IGROV1 ovarian): > 100 µM
TGI (OVCAR-5 ovarian): > 76 µM
TGI (UO-31 renal): > 94.7 µM
TGI (MDA-MB-435): > 72.5 µM
TGI (ACHN renal): > 96.4 µM
TGI (OVCAR-3 ovarian): 41.2 µM
TGI (SK-OV-3 ovarian): > 100 µM
TGI (HCC-2998 colon): > 62.9 µM
TGI (HL-60(TB) leukemia): > 71.7 µM
TGI (786-0 renal): > 74.7 µM

O=C(O)c1cc(N=Nc2ccc([As](=O)(O)O)cc2)ccc1O
TGI (IGROV1 ovarian): > 100 µM
TGI (OVCAR-5 ovarian): > 100 µM
TGI (UO-31 renal): > 100 µM
TGI (MDA-MB-435): > 100 µM
TGI (ACHN renal): > 100 µM
TGI (OVCAR-3 ovarian): > 100 µM
TGI (SK-OV-3 ovarian): > 100 µM
TGI (HCC-2998 colon): > 100 µM
TGI (HL-60(TB) leukemia): > 100 µM
TGI (786-0 renal): > 100 µM

CC12CCCC(CC(=O)c3[nH]c4ccccc4c31)C2 (centres undefined)
GI50 (IGROV1 ovarian): 0.793 µM
TGI (IGROV1 ovarian): > 100 µM
GI50 (OVCAR-5 ovarian): 2.82 µM
TGI (OVCAR-5 ovarian): > 100 µM
GI50 (UO-31 renal): 2.4 µM
TGI (UO-31 renal): > 100 µM
GI50 (MDA-MB-435): 0.255 µM
TGI (MDA-MB-435): 0.949 µM
GI50 (ACHN renal): 0.856 µM
TGI (ACHN renal): > 100 µM
GI50 (OVCAR-3 ovarian): 0.384 µM
TGI (OVCAR-3 ovarian): 2.61 µM
GI50 (SK-OV-3 ovarian): 3.53 µM
TGI (SK-OV-3 ovarian): > 76.1 µM
GI50 (HCC-2998 colon): 1.79 µM
TGI (HCC-2998 colon): 24.6 µM
GI50 (HL-60(TB) leukemia): 0.34 µM
TGI (HL-60(TB) leukemia): 3.94 µM
GI50 (786-0 renal): 0.879 µM
TGI (786-0 renal): 18.4 µM

NC(N)=NC(N)=Nc1cc2ccccc2c2ccccc12
GI50 (IGROV1 ovarian): 4.04 µM
TGI (IGROV1 ovarian): 19.1 µM
GI50 (OVCAR-5 ovarian): 11 µM
TGI (OVCAR-5 ovarian): 24.3 µM
GI50 (UO-31 renal): 5.05 µM
TGI (UO-31 renal): 19.9 µM
GI50 (MDA-MB-435): 12.4 µM
TGI (MDA-MB-435): 25.4 µM
GI50 (ACHN renal): 5.07 µM
TGI (ACHN renal): 17.3 µM
GI50 (OVCAR-3 ovarian): 12.3 µM
TGI (OVCAR-3 ovarian): 26.6 µM
GI50 (SK-OV-3 ovarian): 11.4 µM
TGI (SK-OV-3 ovarian): 24 µM
GI50 (HCC-2998 colon): 6.89 µM
TGI (HCC-2998 colon): 24.2 µM
GI50 (HL-60(TB) leukemia): 10.5 µM
TGI (HL-60(TB) leukemia): 26.3 µM
GI50 (786-0 renal): 7.23 µM
TGI (786-0 renal): 22.5 µM

COc1ccc(-c2cc3c(nn2)-c2ccccc2C3=O)cc1
GI50 (IGROV1 ovarian): > 100 µM
TGI (IGROV1 ovarian): > 100 µM
GI50 (OVCAR-5 ovarian): > 100 µM
TGI (OVCAR-5 ovarian): > 100 µM
GI50 (UO-31 renal): > 100 µM
TGI (UO-31 renal): > 100 µM
GI50 (MDA-MB-435): > 100 µM
TGI (MDA-MB-435): > 100 µM
GI50 (ACHN renal): > 100 µM
TGI (ACHN renal): > 100 µM
GI50 (OVCAR-3 ovarian): > 100 µM
TGI (OVCAR-3 ovarian): > 100 µM
GI50 (SK-OV-3 ovarian): > 100 µM
TGI (SK-OV-3 ovarian): > 100 µM
GI50 (HCC-2998 colon): > 100 µM
TGI (HCC-2998 colon): > 100 µM
GI50 (HL-60(TB) leukemia): > 100 µM
TGI (HL-60(TB) leukemia): > 100 µM
GI50 (786-0 renal): > 100 µM
TGI (786-0 renal): > 100 µM

CC(=O)[O][Hg][c]1c(C)c(C)c(C)c(C)c1C
GI50 (IGROV1 ovarian): 0.604 µM
TGI (IGROV1 ovarian): 2.2 µM
GI50 (OVCAR-5 ovarian): 3.33 µM
TGI (OVCAR-5 ovarian): 8.74 µM
GI50 (UO-31 renal): 3.45 µM
TGI (UO-31 renal): 7.74 µM
GI50 (MDA-MB-435): 1.5 µM
TGI (MDA-MB-435): 3.09 µM
GI50 (ACHN renal): 10 µM
TGI (ACHN renal): 23.1 µM
GI50 (OVCAR-3 ovarian): 1.82 µM
TGI (OVCAR-3 ovarian): 3.31 µM
GI50 (SK-OV-3 ovarian): 2.69 µM
TGI (SK-OV-3 ovarian): 6.04 µM
GI50 (HCC-2998 colon): 1.53 µM
TGI (HCC-2998 colon): 3.2 µM
GI50 (HL-60(TB) leukemia): 1.91 µM
TGI (HL-60(TB) leukemia): 4.75 µM
GI50 (786-0 renal): 1.65 µM
TGI (786-0 renal): 3.03 µM

COc1cc2c(/C=C3/C(=O)Nc4cccc(Cl)c43)c(Cl)n(Cc3ccccc3)c2cc1C
GI50 (IGROV1 ovarian): 7.42 µM
TGI (IGROV1 ovarian): > 100 µM
GI50 (OVCAR-5 ovarian): 24.4 µM
TGI (OVCAR-5 ovarian): > 71.4 µM
GI50 (UO-31 renal): 5.69 µM
TGI (UO-31 renal): > 100 µM
GI50 (MDA-MB-435): 1.11 µM
TGI (MDA-MB-435): 5.82 µM
GI50 (ACHN renal): 3.58 µM
TGI (ACHN renal): 33.3 µM
GI50 (OVCAR-3 ovarian): 8.84 µM
TGI (OVCAR-3 ovarian): 25.2 µM
GI50 (SK-OV-3 ovarian): 7.24 µM
TGI (SK-OV-3 ovarian): > 74.8 µM
GI50 (HCC-2998 colon): 3.1 µM
TGI (HCC-2998 colon): 8.99 µM
GI50 (HL-60(TB) leukemia): 5.22 µM
TGI (HL-60(TB) leukemia): > 100 µM
GI50 (786-0 renal): 3.59 µM
TGI (786-0 renal): 26.7 µM

COc1ccc2cc(C(=O)/C=C/c3cccc(OC)c3OC)ccc2c1
GI50 (OVCAR-5 ovarian): 20.2 µM
TGI (OVCAR-5 ovarian): 40.7 µM
GI50 (UO-31 renal): 17.5 µM
TGI (UO-31 renal): 31.3 µM
GI50 (MDA-MB-435): 5.16 µM
TGI (MDA-MB-435): 29.7 µM
GI50 (ACHN renal): 8.38 µM
TGI (ACHN renal): 22.2 µM
GI50 (OVCAR-3 ovarian): 19 µM
TGI (OVCAR-3 ovarian): 35.5 µM
GI50 (SK-OV-3 ovarian): 23.7 µM
TGI (SK-OV-3 ovarian): 45.9 µM
GI50 (HCC-2998 colon): 14.2 µM
TGI (HCC-2998 colon): 27.2 µM
GI50 (786-0 renal): 4.26 µM
TGI (786-0 renal): 16.6 µM

COc1cc2c3c(n(CCCCl)c(=O)c2cc1OC)-c1ccccc1C3=O
GI50 (UO-31 renal): > 100 µM
TGI (UO-31 renal): > 100 µM
GI50 (MDA-MB-435): > 100 µM
TGI (MDA-MB-435): > 100 µM
GI50 (ACHN renal): 19.2 µM
TGI (ACHN renal): > 100 µM
GI50 (OVCAR-3 ovarian): 10.6 µM
TGI (OVCAR-3 ovarian): 54.8 µM
GI50 (SK-OV-3 ovarian): > 100 µM
TGI (SK-OV-3 ovarian): > 100 µM
GI50 (HCC-2998 colon): > 100 µM
TGI (HCC-2998 colon): > 100 µM
GI50 (786-0 renal): 12.3 µM
TGI (786-0 renal): > 100 µM
